One series addresses E. coli GUS (Escherichia coli, UniProt P05804). In words: In vitro EcGUS inhibition, cleavage of PNPG by purified E. coli GUS. The series is classed as biochemical. Particulars: PNPG substrate, 37° C., 2 hours. As to the method: To assess GUS inhibition, cleavage of p-nitrophenyl-β-D-glucuronide (PNPG) by purified E. coli GUS in the presence of inhibitor was measured. The reaction was performed in 96-well clear-bottom plates at a volume of 50 μL. Each reaction contained 5 μL of 100 nM E. coli GUS, 5 μL of inhibitor at various concentrations, 10 μL of 250 mM HEPES and 250 mM NaCl assay buffer, and 30 μL of 1.5 mM PNPG. The reaction was initiated by addition of PNPG and incubated at 37° C. for 2 hours. End point absorbance values at 410 nm were measured using a PHERAstar Plus microplate reader. The resulting data were fit with a four-parameter logistic log function in SigmaPlot 13.0 to determine IC50 values. IC50 was defined as the concentration of inhibitor that yields a 50% reduction in product formation at equilibrium.

Series [1] deals with gut microbial GUS enzymes. Particulars: co-treatment with irinotecan; cited from earlier work.
For series [2] the following is noted: rats; cited from earlier work.
The subject of series [3] is panel of purified GUS enzymes present in the human gut microbiota. In words: SN-38-G processing by panel of purified GUS enzymes, with inhibitors. The class given is biochemical. Particulars: enzymes other than E. coli GUS.
The subject of series [4] is GUS activity in human fecal extracts. Particulars: cited from earlier work.
Series [5] has as its system bacteria cultured in vitro. Particulars: cited from earlier work.

Chain of E. coli GUS (P05804 whole entry): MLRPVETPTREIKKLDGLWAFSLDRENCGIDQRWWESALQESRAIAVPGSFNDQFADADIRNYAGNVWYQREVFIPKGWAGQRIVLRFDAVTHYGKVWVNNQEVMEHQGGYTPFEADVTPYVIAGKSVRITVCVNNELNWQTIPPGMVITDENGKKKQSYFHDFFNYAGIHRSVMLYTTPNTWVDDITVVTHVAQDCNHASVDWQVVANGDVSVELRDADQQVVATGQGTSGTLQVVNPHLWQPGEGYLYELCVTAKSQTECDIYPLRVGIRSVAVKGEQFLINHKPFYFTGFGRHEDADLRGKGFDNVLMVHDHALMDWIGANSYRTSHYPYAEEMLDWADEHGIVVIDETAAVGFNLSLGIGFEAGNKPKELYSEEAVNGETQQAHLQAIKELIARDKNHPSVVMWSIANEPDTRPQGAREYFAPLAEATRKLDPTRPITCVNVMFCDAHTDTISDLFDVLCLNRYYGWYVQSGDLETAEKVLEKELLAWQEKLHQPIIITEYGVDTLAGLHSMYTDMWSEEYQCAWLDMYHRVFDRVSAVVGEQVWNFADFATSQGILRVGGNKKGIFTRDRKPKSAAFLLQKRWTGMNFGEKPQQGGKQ

The term IC50 denotes the concentration that inhibits the measured activity by half. `CN1CCN(c2nnnc3c2sc2nc(N4CCOCC4)c4c(c23)CCCC4)CC1` [Compound 2] registered an IC50 at E. coli GUS of 37600 ± 700 nM.

Take `C1CCc2c(c(N3CCOCC3)nc3sc4c(NC5CCNCC5)nnnc4c23)C1` [Compound 4]: the IC50 against E. coli GUS amounted to 30000 ± 10000 nM.

Take `C1CCc2c(c(N3CCOCC3)nc3sc4c(N5CC6CC5CN6)nnnc4c23)C1` (centres unmarked) [Compound 5]: on E. coli GUS, the IC50 turned out to be 9000 ± 2000 nM.

On E. coli GUS, `C[C@@H]1CN(c2nnnc3c2sc2nc(N4CCOCC4)c4c(c23)CCCC4)CCN1` [Compound 6] yielded an IC50 of 2400 ± 400 nM.

Take `C[C@H]1CN(c2nnnc3c2sc2nc(N4CCOCC4)c4c(c23)CCCC4)CCN1` [Compound 7]: half-maximal inhibition against E. coli GUS (IC50) was put at 2400 ± 300 nM.

At E. coli GUS, `C1CCc2c(c(N3CCOCC3)nc3sc4c(N5CCCNCC5)nnnc4c23)C1` [Compound 8] displayed an IC50 of 9000 ± 2000 nM.

For the molecule `NCCNc1nnnc2c1sc1nc(N3CCOCC3)c3c(c12)CCCC3` [Compound 9], the IC50 at E. coli GUS worked out at 5600 ± 500 nM.

In the case of `C1CCc2c(c(N3CCNCC3)nc3sc4c(N5CCNCC5)nnnc4c23)C1` [Compound 12], it took 130 ± 10 nM to reach half-maximal inhibition against E. coli GUS (IC50).

Consider `C1CCN(c2nc3sc4c(N5CCNCC5)nnnc4c3c3c2CCCC3)CC1` [Compound 13], for which 500 ± 200 nM corresponded to half-maximal inhibition against E. coli GUS (IC50).

In turn, `C1CCC(Nc2nc3sc4c(N5CCNCC5)nnnc4c3c3c2CCCC3)CC1` [Compound 14] displayed an IC50 against E. coli GUS of 800 ± 200 nM.

`CN(C)c1nc2sc3c(N4CCNCC4)nnnc3c2c2c1CCCC2` [Compound 15] yielded a concentration for half-maximal inhibition (IC50) at E. coli GUS of 130 ± 10 nM.

Regarding `c1ccc(CNc2nc3sc4c(N5CCNCC5)nnnc4c3c3c2CCCC3)cc1` [Compound 17], on E. coli GUS, the half-inhibitory concentration (IC50) stood at 190 ± 40 nM.

Molecule `c1cc2c(nc1N1CCOCC1)sc1c(N3CCNCC3)nnnc12` [Compound 19] returned an IC50 on E. coli GUS of 170 ± 40 nM.

As for `CNc1nc(N2CCNCC2)c2sc3nc(N4CCOCC4)ccc3c2n1` [Compound 21], at E. coli GUS, the half-inhibitory concentration (IC50) amounted to 100 ± 20 nM.

`c1ccc(-c2ccc3c(n2)sc2c(N4CCNCC4)nnnc23)cc1` [Compound 22] came in with an IC50 on E. coli GUS of 150 ± 50 nM.

`c1ccc(-c2ccc3c(n2)sc2c(N4CCNCC4)ncnc23)cc1` [Compound 23] returned an IC50 against E. coli GUS of 130 ± 30 nM.

Molecule `CNc1nc(N2CCNCC2)c2sc3nc(-c4ccccc4)ccc3c2n1` [Compound 24] had an IC50 against E. coli GUS of 180 ± 90 nM.

For `CN(C)c1nc(N2CCNCC2)c2sc3nc(-c4ccccc4)ccc3c2n1` [Compound 25], it took 190 ± 90 nM to reach half-maximal inhibition against E. coli GUS (IC50).

As to `OCCNc1nc(N2CCNCC2)c2sc3nc(-c4ccccc4)ccc3c2n1` [Compound 26], on E. coli GUS, the midpoint of inhibition, the IC50, lay at 120 ± 20 nM.

The molecule `CN(C)c1ccc2c(n1)sc1c(N3CCNCC3)nnnc12` [Compound 27] displayed an IC50 against E. coli GUS of 80 ± 30 nM.

`CNc1nc(N2CCNCC2)c2sc3nc(N(C)C)ccc3c2n1` [Compound 28] gave an IC50 against E. coli GUS of 42 ± 6 nM.

Take `CNc1ccc2c(n1)sc1c(N3CCNCC3)nc(NC)nc12` [Compound 29]: at E. coli GUS, 40 ± 8 nM corresponded to half-maximal inhibition (IC50).

Take `c1cnc2sc3c(N4CCNCC4)ncnc3c2c1` [Compound 30]: inhibition at E. coli GUS was half-maximal at 80 ± 20 nM (IC50).

At E. coli GUS, `CNc1nc(N2CCNCC2)c2sc3ncccc3c2n1` [Compound 31] returned an IC50 of 36 ± 2 nM.

Turning to `CCOc1ccc(NC(=S)N(CCO)Cc2cc3cc(C)cc(C)c3[nH]c2=O)cc1` [Inh1], in series [1], the “gut toxicity and diarrhea” value is “alleviated gut toxicity and diarrhea”. In addition, in series [2], the “NSAID-induced intestinal anastomosis after surgical resection” value was “reduce NSAID-induced intestinal anastomosis”. Further, in series [3], the “effects on other GUS enzymes, including others from the L1 category” value is reported as “weak effects”.

For the molecule `Clc1ccc2c(c1)C(N1CCNCC1)=Nc1ccccc1O2` [amoxapine], the “block of GUS activity in human fecal extracts” value in series [4] is “incompletely blocks”. In series [5], the “viability of bacteria cultured in vitro” value was “reduced the viability”.
